Earlier results, collected in patent publication US20100048598A1, “TOPICAL COMPOSITIONS COMPRISING 5-ALPHA REDUCTASE INHIBITORS” (priority 2008, published 2010).

What was measured:
[1] = molecular target: T1, type II 5α-reductase (Homo sapiens, UniProt P31213); conditions: relative to finasteride
T1 sequence (P31213 1-254): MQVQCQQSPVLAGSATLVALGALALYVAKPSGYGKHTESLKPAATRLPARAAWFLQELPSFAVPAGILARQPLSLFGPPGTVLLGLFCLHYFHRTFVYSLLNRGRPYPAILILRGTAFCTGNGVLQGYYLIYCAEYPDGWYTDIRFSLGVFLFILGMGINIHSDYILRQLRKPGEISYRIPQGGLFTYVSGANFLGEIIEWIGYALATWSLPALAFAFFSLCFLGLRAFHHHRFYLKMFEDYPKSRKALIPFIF

[2] = molecular target: T2, type I 5α-reductase (Homo sapiens, UniProt P18405); conditions: relative to finasteride
T2 sequence (P18405 1-259): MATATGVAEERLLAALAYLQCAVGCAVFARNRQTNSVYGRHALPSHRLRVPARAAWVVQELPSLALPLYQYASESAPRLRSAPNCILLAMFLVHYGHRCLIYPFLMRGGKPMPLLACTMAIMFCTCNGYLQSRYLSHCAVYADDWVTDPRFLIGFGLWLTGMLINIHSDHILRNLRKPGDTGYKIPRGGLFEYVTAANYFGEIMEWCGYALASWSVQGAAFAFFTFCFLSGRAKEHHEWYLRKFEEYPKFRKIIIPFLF

[3] = orally administered
[4] = system: DHT; conditions: daily oral 1 mg dose
[5] = system: androgenic alopecia; conditions: 1 mg/day, treated men

Structure (SMILES)	potency at inhibiting type II 5α-reductase as compared with finasteride [1]	potency at inhibiting the type I isoform as compared with finasteride [2]	solubility in ethanol (ethanol)	solubility in methanol (methanol)	solubility in polyethylene glycol 400 (polyethylene glycol 400)	solubility in water (water)	Absolute bioavailability [3]	Absolute bioavailability, range ([3]; range in brackets)	scalp DHT reduction [4]	serum DHT reduction [4]	progression of hair loss and hair growth compared with control group [5]
C[C@]12C=CC(=O)N[C@@H]1CC[C@@H]1[C@@H]2CC[C@]2(C)[C@@H](C(=O)Nc3cc(C(F)(F)F)ccc3C(F)(F)F)CC[C@@H]12 [Dutasteride, (5α,17β)-N-{2,5-bis(trifluoromethyl)phenyl}-3-oxo-4-azaandrost-1-ene-17-carboxamide]	approximately 3 times	more than 100 times	soluble	soluble	soluble	insoluble	about 60%	40%-94%			
CC(C)(C)NC(=O)[C@H]1CC[C@H]2[C@@H]3CC[C@H]4NC(=O)C=C[C@]4(C)[C@H]3CC[C@]12C [Finasteride]									64%	68%	slowed the progression of hair loss and increased hair growth
